Measured values as given in patent US4398029A, “Quinoline carboxylic acid derivatives and process for the preparation” (Kyorin Seiyaku Kabushiki Kaisha, priority 1981, dated 1983).
Read-outs that look alike come from different tables or passages of the source.

How the values were obtained:
[1] = tested on: E. coli ATCC 10536; assay: Antibacterial activity (MIC), standard agar dilution streak method; format: cell-based, Escherichia coli; conditions: Escherichia coli, ATCC10536, read-out: Minimum inhibitory concentration
Procedure: (§1) The antibacterial activities of the compounds of the present invention were assayed by the standard agar dilution streak method against Gram-positive and Gram-negative bacteria [Chemotherapy, 22, 1126 (1974)].

[2] = tested on: Shigella sonnei IID 969; assay: microbe, parasite or virus in culture; format: cell-based; conditions: Shigella sonnei, IID969, Shigella sonnei IID 969; read-out: Minimum inhibitory concentration
Procedure: as §1

[3] = tested on: S. aureus Terajima; assay: Antibacterial activity (MIC), standard agar dilution streak method; format: cell-based, Staphylococcus aureus; conditions: Staphylococcus aureus; S. aureus Terajima; read-out: Minimum inhibitory concentration
Procedure: as §1

[4] = tested on: Alcaligenes faecalis 0104002; assay: as above; format: cell-based; conditions: read-out: Minimum inhibitory concentration
Procedure: as §1

[5] = tested on: Serratia marcescens IID 618; assay: as above; format: cell-based; conditions: read-out: Minimum inhibitory concentration
Procedure: as §1

[6] = tested on: Staphylococcus aureus 209 p; assay: as above; format: cell-based; conditions: Staphylococcus aureus 209 p; read-out: Minimum inhibitory concentration
Procedure: as §1

[7] = tested on: Pseudomonas aeruginosa V-1; assay: as above; format: cell-based; conditions: read-out: Minimum inhibitory concentration
Procedure: as §1

[8] = tested on: P. morganii IID 602; assay: as above; format: cell-based; conditions: Morganella morganii, IID602, P. morganii IID 602; read-out: Minimum inhibitory concentration
Procedure: as §1

[9] = tested on: Enterobacter cloacae IID 977; assay: as above; format: cell-based; conditions: read-out: Minimum inhibitory concentration
Procedure: as §1

[10] = tested on: Proteus vulgaris 3167; assay: as above; format: cell-based; conditions: read-out: Minimum inhibitory concentration
Procedure: as §1

[11] = tested on: Citrobacter freundii IID 976; assay: as above; format: cell-based; conditions: read-out: Minimum inhibitory concentration
Procedure: as §1

[12] = tested on: Escherichia coli NIHJ JC-2; assay: as above; format: cell-based; conditions: read-out: Minimum inhibitory concentration
Procedure: as §1

[13] = tested on: Klebsiella pneumoniae IFO 3512; assay: as above; format: cell-based; conditions: read-out: Minimum inhibitory concentration
Procedure: as §1

[14] = tested on: P. mirabilis IID 994; assay: as above; format: cell-based; conditions: Proteus mirabilis, IID994; P. mirabilis IID 994; read-out: Minimum inhibitory concentration
Procedure: as §1

[15] = tested on: Salmonella enteritidis IID 604; assay: as above; format: cell-based; conditions: Salmonella enterica; Salmonella enteritidis IID 604; read-out: Minimum inhibitory concentration
Procedure: as §1

[16] = tested on: Acinetobacter anitratus IID 876; assay: as above; format: cell-based; conditions: Acinetobacter calcoaceticus, IID876, read-out: Minimum inhibitory concentration
Procedure: as §1

[17] = tested on: S. epidermidis IID 866; assay: as above; format: cell-based; conditions: Staphylococcus epidermidis, IID866, read-out: Minimum inhibitory concentration
Procedure: as §1

[18] = tested on: Yersinia enterocolitica IID 981; assay: as above; format: cell-based; conditions: read-out: Minimum inhibitory concentration
Procedure: as §1

[19] = tested on: Bacillus subtilis PCI 219; assay: as above; format: cell-based; conditions: PCI219; Bacillus subtilis PCI 219; read-out: Minimum inhibitory concentration
Procedure: as §1

[20] = tested on: P. aeruginosa IFO 12689; assay: as above; format: cell-based, Pseudomonas aeruginosa; conditions: Pseudomonas aeruginosa, IFO12689, P. aeruginosa IFO 12689; read-out: Minimum inhibitory concentration
Procedure: as §1

[21] = IID618, Serratia marcescens IID 618
[22] = Pseudomonas aeruginosa, V1, Pseudomonas aeruginosa V-1
[23] = IID977, Enterobacter cloacae IID 977
[24] = IID976, Citrobacter freundii IID 976
[25] = NIHJJC2, Escherichia coli NIHJ JC-2
[26] = IFO3512, Klebsiella pneumoniae IFO 3512
[27] = IID981, Yersinia enterocolitica IID 981

SMILES	MIC [1] [µg/mL]	MIC [2] [µg/mL]	MIC [3] [µg/mL]	MIC ([4]; Alcaligenes faecalis 0104002) [µg/mL]	MIC [5, 21] [µg/mL]	MIC [6] [µg/mL]	MIC [7, 22] [µg/mL]	MIC [8] [µg/mL]	MIC [9, 23] [µg/mL]	MIC ([10]; Proteus vulgaris 3167) [µg/mL]	MIC [11, 24] [µg/mL]	MIC [12, 25] [µg/mL]	MIC [13, 26] [µg/mL]	MIC [14] [µg/mL]	MIC [15] [µg/mL]	MIC [16] [µg/mL]	MIC [17] [µg/mL]	MIC [18, 27] [µg/mL]	MIC [19] [µg/mL]	MIC [20] [µg/mL]	also measured
Cl.O=C(O)c1cn(CCF)c2c(F)c(N3CCNCC3)c(F)cc2c1=O [Example 4, 6,8-Difluoro-1-(2-fluoroethyl)-1,4-dihydro-4-oxo-7-(1-piperazinyl)quinoline-3-carboxylic acid hydrochloride]	0.1	≤ 0.05	3.13	3.13	0.39	3.13	6.25	0.2	≤ 0.05	≤ 0.05	≤ 0.05	≤ 0.05	≤ 0.05	≤ 0.05	0.05	3.13	1.56	0.05	0.39	1.56	
CN1CCN(c2c(F)cc3c(=O)c(C(=O)O)cn(CCF)c3c2F)CC1.Cl [Example 5, 6,8-Difluoro-1-(2-fluoroethyl)-1,4-dihydro-7-(4-methyl-1-piperazinyl)-4-oxoquinoline-3-carboxylic acid hydrochloride]	0.1	≤ 0.05	0.78			0.78		0.1						≤ 0.05		0.39	0.78		0.1	3.13	MIC ([4]; Alcaligenes faecalis, 0104002, Alcaligenes faecalis 0104002): 0.78 µg/mL; MIC ([5]; Serratia marcescens, IID618, Serratia marcescens IID 618): 0.1 µg/mL; MIC ([7]; V1, Pseudomonas aeruginosa V-1): 3.13 µg/mL; MIC ([9]; Enterobacter cloacae, IID977, Enterobacter cloacae IID 977): 0.1 µg/mL; MIC ([10]; Proteus vulgaris, 3167, Proteus vulgaris 3167): ≤ 0.05 µg/mL; MIC ([11]; Citrobacter freundii, IID976, Citrobacter freundii IID 976): ≤ 0.05 µg/mL; MIC ([12]; Escherichia coli, NIHJJC2, Escherichia coli NIHJ JC-2): ≤ 0.05 µg/mL; MIC ([13]; Klebsiella pneumoniae, IFO3512, Klebsiella pneumoniae IFO 3512): ≤ 0.05 µg/mL; MIC ([18]; Yersinia enterocolitica, IID981, Yersinia enterocolitica IID 981): 0.1 µg/mL
C=CCn1cc(C(=O)O)c(=O)c2cc(F)c(N3CCNCC3)c(F)c21.Cl [Example 3, 1-Allyl-6,8-difluoro-1,4-dihydro-4-oxo-7-(1-piperazinyl)quinoline-3-carboxylic acid hydrochloride]	0.39	0.1	3.13	3.13	0.39	3.13	12.5	0.39	0.78	0.1	0.2		0.1	0.2	0.2	3.13	3.13	0.39	0.39	6.25	
Cl.O=C(O)c1cn(CCO)c2c(F)c(N3CCNCC3)c(F)cc2c1=O [Example 14, 6,8-Difluoro-1,4-dihydro-1-(2-hydroxyethyl)-4-oxo-7-(1-piperazinyl)-quinoline-3-carboxylic acid hydrochloride]	0.39	0.2	25	100	6.25	12.5			0.39	0.39	0.2	0.39	0.39		0.39	25	12.5	0.39	3.13	12.5	
Cl.Cn1cc(C(=O)O)c(=O)c2cc(F)c(N3CCNCC3)c(F)c21 [Example 1, 6,8-Difluoro-1,4-dihydro-1-methyl-4-oxo-7-(1-piperazinyl)quinoline-3-carboxylic acid hydrochloride]	0.1	≤ 0.05	3.13	6.25	0.1	3.13	3.13	0.2	0.1		≤ 0.05	≤ 0.05	≤ 0.05	0.1	0.1	1.56	3.13	0.1	0.39	1.56	
